This note sets out measurements from a melting point compilation (Tetko et al.; mined from patent text by program, amines drawn as free bases though some values may be those of a salt).

Each structure is given as a SMILES string.

Broadly, the melting point is the temperature of the solid-liquid transition.

For the molecule `Nc1ncnc2c1ncn2C1OC(CS)C(O)C1O` (configuration not stated), the melting point lay in the range of 108 to 109 °C.

Take `CNC1=NN(C(=O)c2ccccc2C(F)(F)F)C(C)(C)S1`: the melting point lay in the range of 164 to 169 °C.

`O=C1NCC(CCc2ccccc2F)O1` (configuration not stated) had a melting point of 73 to 74 °C.

As for `CC(C)(C)OC(=O)[C@@H]1CS[C@H](c2ccccc2)N1C(=O)CNC(=O)Nc1cccc(CCO)c1`, the melting point stood at 164 °C.

In turn, `OC1(c2ccccn2)CCNCC1` displayed a melting point of 128 to 132 °C.

Regarding `COc1cc(N)ccc1-c1cnn(C)c1`, the melting point lay in the range of 129 to 131 °C.

`NC(CCN1CCC(O)(Cc2ccccc2)CC1)C(=O)c1ccccc1` (configuration not stated) registered a melting point of 123 to 124 °C.

Consider `O=C(CCC(=O)N1CCC[C@H]1C(=O)O)c1ccc(Br)cc1`, for which the melting point fell in the range of 138 to 139 °C.

In turn, `CCc1nc(/C=C/c2cccc(Cl)c2Cl)no1` displayed a melting point of 107 to 109 °C.

Molecule `O=S1(=O)Cc2ccc(F)cc2C(c2ccc(F)cc2)=NN1` registered a melting point of 196 to 200 °C.

With `c1ccc(CSc2nc3ccccc3[nH]2)cc1`, the melting point fell in the range of 185 to 186 °C.

Molecule `CS(=O)Cc1ccc(Cl)nc1` (configuration not stated) yielded a melting point of 72 to 74 °C.

In turn, `CCOC(=O)c1cc(OC)ccc1CCc1cc2cc(C#N)ccc2o1` gave a melting point of 92 to 93 °C.

`COc1ccccc1N1CCN(C(=O)OC(C)(C)C)CC1` registered a melting point of 70 to 71 °C.

In turn, `O=C1OCCC1Oc1ccc(Cl)cc1[N+](=O)[O-]` (configuration not stated) yielded a melting point of 136 to 140 °C.

With `O=C(O)c1cn(C2CC2)c2c(CO)c(N3CCNCC3)c(F)cc2c1=O`, the melting point lay in the range of 149 to 152 °C.

In the case of `CC(F)c1nc[nH]c(=O)c1Cl` (configuration not stated), the melting point fell in the range of 190 to 191 °C.

On to `C#CCc1c(C)nc2c(OCc3c(C)cccc3N(C)C(C)=O)cccn12`, for which the melting point turned out to be 76 °C.

The molecule `O=c1oc(-c2ccccc2)cc(O)c1SCCCc1ccccc1` yielded a melting point of 114 to 116 °C.

`CS(=O)(=O)c1cc(Br)nc(Br)c1` yielded a melting point of 137 to 138 °C.

`CS(=O)(=O)OCCOCCOC(=O)Cc1ccccc1Nc1c(Cl)cccc1Cl` came in with a melting point of 87 °C.

Turning to `Cn1nc(-c2cc(C=O)c(Cl)cc2Cl)c(Cl)c1OC(F)F`, the melting point amounted to 138 °C.

On to `COc1cc(NC(=O)c2ccccn2)ccc1Oc1ncccn1`, for which the melting point fell in the range of 203 to 205 °C.

`CCCCCCCCCCCCCCCCC12CCC3=C(CCc4cc(OC)ccc43)C1CCC2=O` (configuration not stated): the melting point was 54 to 56 °C.

In turn, `CN1C(=O)CCC2(CCC(=O)c3ccccc32)C1=O` (configuration not stated) came in with a melting point of 136 to 138 °C.

With `O=C1CCCc2cc(=O)[nH]cc21`, the melting point was 246 to 248 °C.

Turning to `Cc1cccnc1NN`, the melting point came out at 119 °C.

`CNc1c(S(=O)C(F)(F)F)c(C#N)nn1-c1c(Cl)cc(C(F)(F)F)cc1Cl` (configuration not stated) displayed a melting point of 227 °C.

With `Cc1ccc(Sc2c(Cl)c(Cl)c(C(O)=NCCO)c(C(=O)O)c2Cl)cc1`, the melting point is 205 to 209 °C.

As for `CCCc1c(C(=O)C(C)C)c2ccc(C(=O)O)cc2n1Cc1ccccc1F`, the melting point is 212 to 213 °C.

For `O=C(O)c1ccc2c3c(ccc(C(O)=NC4CCCCC4)c13)CC2`, the melting point lay in the range of 264 to 265 °C.

As to `CC(C)CC(=O)Nc1cc(-c2ccnc3c(C(=O)c4cccs4)cnn23)ccc1Cl`, the melting point was 172 to 175 °C.

For the molecule `O=Cc1ccc2c(c1)C1(c3ccccc3-2)c2ccccc2-c2ccc(CO)cc21` (configuration not stated), the melting point was in the range of 262 to 263 °C.

`COc1cc(/C=C/S(=O)(=O)CS(=O)(=O)/C=C/c2cc(OC)c(OC)c(OC)c2)cc(OC)c1OC` showed a melting point of 127 to 129 °C.

`CCCCCCCCCCCCCCCNC(=O)OCCOCCOCCOC(=O)N(Cc1ccccn1)C(C)=O` displayed a melting point of 42 to 43 °C.

`CSc1ccccc1CNc1ncnc2c1sc1nc(N3CCCC3)c3c(c12)CC(C)(C)OC3` had a melting point of 176 to 177 °C.

Regarding `N#Cc1ccc(N(Cc2ccc(OCc3ccccc3)cc2)n2cnnc2)cc1-c1ccco1`, the melting point fell in the range of 181 to 182 °C.

`CC(C)c1ccc(C(=O)C2CCN(Cc3ccccc3)CC2)cc1` yielded a melting point of 76 to 77 °C.

On to `O=C(C#Cc1ccncc1)c1ccccc1`, for which the melting point lay within 74 to 75 °C.

As for `COC1CC(NC(=O)C(F)(F)F)C(OCc2ccccc2)C(C)O1` (configuration not stated), the melting point was in the range of 159 to 160 °C.

`CCOc1cc2c(cc1O[Si](C)(C)C(C)(C)C)C(=O)CC1C2CCC2(C)C(O[Si](C)(C)C(C)(C)C)CCC12` (configuration not stated): the melting point lay in the range of 150 to 151 °C.

The molecule `O=C(O)CN1C(=O)C(=Cc2ccc(OCc3cccc(C(F)(F)F)c3)c(OCc3ccccc3)c2)SC1=S` gave a melting point of 187 to 194 °C.

`CCC1(O)CC(=O)OCc2c1cc1n(c2=O)Cc2c-1nc1ccccc1c2CC[Si](C)(C)C` (configuration not stated) displayed a melting point above 250 °C.

As to `CC(C)(O)c1ccc(-c2cnc3c(n2)N(CC2CCOCC2)CC(=O)N3)cn1`, the melting point lay in the range of 268 to 269 °C.

`CCC(C)(CC)N=C(NC#N)Nc1cc(Cl)cc(Cl)c1` showed a melting point of 148 to 150 °C.

Consider `Cc1c(Br)cc(C(C)(C)C)c(O)c1C(=O)O`, for which the melting point was 54 to 58 °C.

For `CNC(=O)N1CC(Oc2cccc(C)c2)C1`, the melting point is 138 to 142 °C.

`CCOC(=O)C1(c2cccc(Cl)c2C)CCN(S(=O)(=O)c2ccc(C)cc2)CC1` registered a melting point of 134 °C.

In turn, `Oc1ccc(C2=C(c3ccc(OC4CCCCO4)cc3)CCCc3cc(OC4CCCCO4)ccc32)cc1` (configuration not stated) showed a melting point of 182 to 183 °C.

In turn, `Nc1sc2c(c1C(=O)c1ccc3ccccc3c1)CCN(Cc1ccccc1Cl)C2` yielded a melting point of 169 to 171 °C.

For `Clc1ccc2nc(Cl)c3ncn(-c4ccccc4Cl)c3c2c1`, the melting point fell in the range of 194 to 200 °C.

In the case of `CC(=O)OC(c1nc(C)c(C)s1)(c1nc(C)c(C)s1)C(F)(F)F`, the melting point was 163 to 164 °C.

The molecule `COC(=O)c1cc(C)c(-n2c(C)ccc2C)c(C)c1` registered a melting point of 104 to 106 °C.

With `C[C@@H]1CN(CC(=O)Nc2ccccc2Cl)C[C@H](C)N1c1ncnc2sccc12`, the melting point lay within 206 to 207 °C.

With `CCOCC1OC(n2cc(C(F)(F)F)c(=O)n(C(=O)c3ccccc3)c2=O)CC1O` (configuration not stated), the melting point was in the range of 156 to 157 °C.

As to `C=CCC(=C)C(O)C(NC=O)C(=O)OC` (configuration not stated), the melting point lay within 75 to 77 °C.

For the molecule `CSc1ccc(-c2ccc(C(=O)Nc3ccc4cc(CN5CCCC5)cnc4c3C)c(F)c2)cc1`, the melting point is 189 to 190 °C.

The molecule `COc1ccc(C2=NN(C)C(=O)CC2)cc1` came in with a melting point of 133 to 135 °C.

In turn, `CCCSc1csc(C(=O)OC)c1S(=O)(=O)NC(C)(C)C` returned a melting point of 93 to 98 °C.

In turn, `Cn1c(=O)n(CCC[C@@H](NS(=O)(=O)c2ccc(-c3ccccc3)cc2)C(=O)O)c(=O)c2ccccc21` had a melting point of 222 to 224 °C.

In the case of `COc1ccc2c(c1O)C13CCN(CC4CC4)C(C2)C1CC(C)C(=O)C3` (configuration not stated), the melting point is 176 to 178 °C.

Take `N#CC(Cc1ccc(Cl)cc1)c1c(Cl)cc(N2N=CCNC2=O)cc1Cl` (configuration not stated): the melting point was 213 °C.

For `CC1=CN2C(=NC(c3ccc(C)cc3)C2C(=O)C(=O)O)C=C1` (configuration not stated), the melting point lay within 190 to 195 °C.

`Nc1nc(Cl)c(Cl)nc1CO` registered a melting point of 174 to 176 °C.

Turning to `O=C(O)c1ccc(OCCCCCCO)cc1F`, the melting point was in the range of 98 to 99 °C.

On to `CC(O)c1ccc(C(C)(C)C)cc1` (single isomer, unassigned; (+)), for which the melting point is 85 °C.

Take `CCOC(=O)c1cc(O)c2nc(C)c(C)n2c1`: the melting point is 219 to 221 °C.

In the case of `CC(C)(C)c1cc(I)c(O)c(CNS(=O)(=O)O)c1`, the melting point was in the range of 172 to 180 °C.

In turn, `O=C(Cc1ccc(F)cc1)c1ccccc1` gave a melting point of 109 to 110 °C.

For `Cc1[nH]c2cc(C(=O)c3ccccc3)ccc2c1C=O`, the melting point lay within 192 to 196 °C.

`Cc1cccc(-n2nc(C)cc2-c2ccnc(N)c2)c1`: the melting point was in the range of 124 to 125 °C.

Molecule `O=C1NCCCN1C1(CO)CCNCC1` had a melting point of 162 °C.

For `CC(C)(C)CC(C)(C)c1cc(-n2nc3ccc(S(=O)(=O)c4ccccc4)cc3n2)c(O)c(C(C)(C)c2ccccc2)c1`, the melting point lay within 170 to 171 °C.

In the case of `O=c1[nH]ncc2cc(Br)ccc12`, the melting point lay within 280 to 283 °C.

Regarding `COC(=O)C1C(c2ccccc2)C2(C(=O)OC)C(C)=NC1(C)CC2C[Si](C)(C)C` (configuration not stated), the melting point fell in the range of 152 to 155 °C.

`O=C(O)c1cc2cc(Cl)ccc2nc1N[C@@H](CO)Cc1ccccc1` had a melting point of 213 to 216 °C.

On to `CCNC(=O)NCC(CO)c1cccc2ccc(OC)cc12` (configuration not stated), for which the melting point lay in the range of 120 to 122 °C.

In the case of `CC(C)(C)OC(=O)NC1CCC(=O)NC1=O` (configuration not stated), the melting point was in the range of 214 to 215 °C.

The molecule `CC(C)c1cccc(C(C)C)c1NC(=O)C1CC(c2ccc(F)cc2)OC1=O` (configuration not stated) gave a melting point of 203 to 205 °C.

Take `CCOC(=O)C1C(c2ccco2)C(C(=O)OCC)C(O)(C(F)(F)F)NC1(O)C(F)(F)F` (configuration not stated): the melting point was in the range of 129 to 131 °C.

On to `COCCNC(N)=Nc1ccccc1N1CCCCC1`, for which the melting point was in the range of 218 to 220 °C.

Take `NS(=O)(=O)c1ccc(NC(=O)Nc2cccc([N+](=O)[O-])c2)cc1`: the melting point lay in the range of 246 to 248 °C.

Regarding `COC(=O)c1cccc(COC(OC(C)=O)C(=O)c2ccccc2)c1` (configuration not stated), the melting point was in the range of 86 to 87 °C.

The molecule `CC(=O)Nc1ccc(C=CC(=O)C2C(=O)OC(=O)C(C(C)=O)=C2O)cc1` (configuration not stated) had a melting point of 230 to 231 °C.

On to `COC(=O)N1CCC(c2ccc(N3C[C@H](CNC(C)=O)OC3=O)cc2F)CC1`, for which the melting point lay in the range of 165 to 166 °C.

With `CCOC(=O)c1cc(-c2csc(C(=O)OCC)n2)[nH]n1`, the melting point lay within 104 to 106 °C.

The molecule `CC(Br)c1nc2ccccc2c(=O)n1-c1ccc(F)cc1` (configuration not stated) came in with a melting point of 180 °C.

In the case of `CC(C)c1nc(O)cc(=O)n1C`, the melting point worked out at 159 °C.

Consider `COc1ccc(C(Cl)C(C)(C)[N+](=O)[O-])cc1` (configuration not stated), for which the melting point was in the range of 40 to 41 °C.

The molecule `CCOC(=O)C1=C(C)NC(COC)=C(C(=O)OCC)C1c1ccc(S(C)(=O)=O)cc1` (configuration not stated) had a melting point of 156 to 158 °C.

As for `O=C1Nc2cccc(-c3cccc(NC(=O)c4ccc([N+](=O)[O-])cc4)c3)c2/C1=C/c1ccc[nH]1`, the melting point lay in the range of 157 to 159 °C.

`COc1ccc(-c2cc(C=O)[nH]c2-c2ccc(OC)cc2)cc1` registered a melting point of 165 to 166 °C.
